Experimental data as given in PubChem BioAssay AID1963825 (Molecular Pharmacology Branch, DTP, NCI, 2024).
pIC50: −log10 of the molar value.

Test: Anticancer human tumor 997537-175-T-J1-PDC patient-derived colon adenocarcinoma cell line growth inhibition [POLQ]
Details: 997537-175-T-J1-PDC complex spheroid viability, combination with POLQ inhibitors; for pIC50: curve of first compound; for viability, T/C: stronger effect = lower value
Summary of the method: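 Growth inhibition in 3D: complex spheroids (tumor PDC, HUVEC, MSC) treated with POLQ inhibitor combinations; where Cmax unknown, highest tested concentration 10 microM, except SN-38 at 1 microM.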

[1] = second compound 0.0316 µM, first compound 0.0316 µM
[2] = second compound 0.0316 µM, first compound 0.1 µM
[3] = second compound 0.0316 µM, first compound 0.316 µM
[4] = second compound 0.0316 µM, first compound 1 µM
[5] = second compound 0.0316 µM, first compound 3.16 µM
[6] = second compound 0.0316 µM, first compound 10 µM
[7] = second compound 0.1 µM, first compound 0.0316 µM
[8] = second compound 0.1 µM, first compound 0.1 µM
[9] = second compound 0.1 µM, first compound 0.316 µM
[10] = second compound 0.1 µM, first compound 1 µM
[11] = second compound 0.1 µM, first compound 3.16 µM
[12] = second compound 0.1 µM, first compound 10 µM
[13] = second compound 0.316 µM, first compound 0.0316 µM
[14] = second compound 0.316 µM, first compound 0.1 µM
[15] = second compound 0.316 µM, first compound 0.316 µM
[16] = second compound 0.316 µM, first compound 1 µM
[17] = second compound 0.316 µM, first compound 3.16 µM
[18] = second compound 0.316 µM, first compound 10 µM
[19] = second compound 1 µM, first compound 0.0316 µM
[20] = second compound 1 µM, first compound 0.1 µM
[21] = second compound 1 µM, first compound 0.316 µM
[22] = second compound 1 µM, first compound 1 µM
[23] = second compound 1 µM, first compound 3.16 µM
[24] = second compound 1 µM, first compound 10 µM
[25] = second compound 3.16 µM, first compound 0.0316 µM
[26] = second compound 3.16 µM, first compound 0.1 µM
[27] = second compound 3.16 µM, first compound 0.316 µM
[28] = second compound 3.16 µM, first compound 1 µM
[29] = second compound 3.16 µM, first compound 3.16 µM
[30] = second compound 3.16 µM, first compound 10 µM
[31] = second compound 10 µM, first compound 0.0316 µM
[32] = second compound 10 µM, first compound 0.1 µM
[33] = second compound 10 µM, first compound 0.316 µM
[34] = second compound 10 µM, first compound 1 µM
[35] = second compound 10 µM, first compound 3.16 µM
[36] = second compound 10 µM, first compound 10 µM
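Also: luminescence signal used as a surrogate for viable cells; spheroids exposed to drugs for seven days before readout.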

SMILES: CC(C)n1c(=O)n(C)c2cnc3cc(F)c(-c4ccc(OCCCN5CCCCC5)nc4)cc3c21 + COC1C(OC(N)=O)C(O)C(Oc2ccc3c(O)c(NC(=O)c4ccc(O)c(CC=C(C)C)c4)c(=O)oc3c2C)OC1(C)C
- pIC50 (second compound 0.0316 µM): < 5.00
- pIC50 (second compound 0.1 µM): < 5.00
- pIC50 (second compound 0.316 µM): < 5.00
- pIC50 (second compound 1 µM): < 5.00
- pIC50 (second compound 3.16 µM): < 5.00
- pIC50 (second compound 10 µM): < 5.00
- viability, T/C [1]: 79%
- viability, T/C [2]: 104%
- viability, T/C [3]: 106%
- viability, T/C [4]: 89.6%
- viability, T/C [5]: 102%
- viability, T/C [6]: 89.5%
- viability, T/C [7]: 103%
- viability, T/C [8]: 102%
- viability, T/C [9]: 102%
- viability, T/C [10]: 96%
- viability, T/C [11]: 93.8%
- viability, T/C [12]: 88.1%
- viability, T/C [13]: 83.8%
- viability, T/C [14]: 102%
- viability, T/C [15]: 114%
- viability, T/C [16]: 80.4%
- viability, T/C [17]: 89.2%
- viability, T/C [18]: 77.7%
- viability, T/C [19]: 97.6%
- viability, T/C [20]: 97.3%
- viability, T/C [21]: 102%
- viability, T/C [22]: 99.6%
- viability, T/C [23]: 93.2%
- viability, T/C [24]: 88%
- viability, T/C [25]: 98.4%
- viability, T/C [26]: 97.8%
- viability, T/C [27]: 90.7%
- viability, T/C [28]: 88%
- viability, T/C [29]: 80%
- viability, T/C [30]: 89.8%
- viability, T/C [31]: 103%
- viability, T/C [32]: 95.8%
- viability, T/C [33]: 90.9%
- viability, T/C [34]: 82.6%
- viability, T/C [35]: 80.1%
- viability, T/C [36]: 85.5%

SMILES: CC1COCCN1c1cc(-c2ccnn2C)c2ccnc(-c3ccn[nH]3)c2n1 (stereo not given) + COC1C(OC(N)=O)C(O)C(Oc2ccc3c(O)c(NC(=O)c4ccc(O)c(CC=C(C)C)c4)c(=O)oc3c2C)OC1(C)C
- pIC50 (second compound 0.0316 µM): 6.66
- pIC50 (second compound 0.1 µM): 6.19
- pIC50 (second compound 0.316 µM): 6.50
- pIC50 (second compound 1 µM): 6.39
- pIC50 (second compound 3.16 µM): 6.18
- pIC50 (second compound 10 µM): < 5.00
- viability, T/C [1]: 77.2%
- viability, T/C [2]: 70.2%
- viability, T/C [3]: 40.4%
- viability, T/C [4]: 47%
- viability, T/C [5]: 24.8%
- viability, T/C [6]: 51.3%
- viability, T/C [7]: 83.3%
- viability, T/C [8]: 81.5%
- viability, T/C [9]: 64.1%
- viability, T/C [10]: 42.5%
- viability, T/C [11]: 24.7%
- viability, T/C [12]: 52.9%
- viability, T/C [13]: 88.1%
- viability, T/C [14]: 88.1%
- viability, T/C [15]: 49.7%
- viability, T/C [16]: 46.3%
- viability, T/C [17]: 33%
- viability, T/C [18]: 66.8%
- viability, T/C [19]: 96.5%
- viability, T/C [20]: 75%
- viability, T/C [21]: 54.3%
- viability, T/C [22]: 39%
- viability, T/C [23]: 33.1%
- viability, T/C [24]: 56.1%
- viability, T/C [25]: 99.5%
- viability, T/C [26]: 88.9%
- viability, T/C [27]: 66.1%
- viability, T/C [28]: 31.5%
- viability, T/C [29]: 27.4%
- viability, T/C [30]: 64.9%
- viability, T/C [31]: 87%
- viability, T/C [32]: 64.7%
- viability, T/C [33]: 44%
- viability, T/C [34]: 54%
- viability, T/C [35]: 32.2%
- viability, T/C [36]: 70.3%

SMILES: CC1COCCN1c1cc(C2(S(C)(=N)=O)CC2)nc(-c2ccnc3[nH]ccc23)n1 (stereo not given) + COC1C(OC(N)=O)C(O)C(Oc2ccc3c(O)c(NC(=O)c4ccc(O)c(CC=C(C)C)c4)c(=O)oc3c2C)OC1(C)C
- pIC50 (second compound 0.0316 µM): < 5.00
- pIC50 (second compound 0.1 µM): < 5.00
- pIC50 (second compound 0.316 µM): < 5.00
- pIC50 (second compound 1 µM): < 5.00
- pIC50 (second compound 3.16 µM): < 5.00
- pIC50 (second compound 10 µM): < 5.00
- viability, T/C [1]: 113%
- viability, T/C [2]: 114%
- viability, T/C [3]: 84.4%
- viability, T/C [4]: 85.4%
- viability, T/C [5]: 90%
- viability, T/C [6]: 49.9%
- viability, T/C [7]: 94.5%
- viability, T/C [8]: 102%
- viability, T/C [9]: 82.7%
- viability, T/C [10]: 72.1%
- viability, T/C [11]: 80.3%
- viability, T/C [12]: 60.5%
- viability, T/C [13]: 99.8%
- viability, T/C [14]: 112%
- viability, T/C [15]: 105%
- viability, T/C [16]: 94.2%
- viability, T/C [17]: 77.7%
- viability, T/C [18]: 54.7%
- viability, T/C [19]: 110%
- viability, T/C [20]: 92.7%
- viability, T/C [21]: 102%
- viability, T/C [22]: 106%
- viability, T/C [23]: 67%
- viability, T/C [24]: 56.4%
- viability, T/C [25]: 109%
- viability, T/C [26]: 112%
- viability, T/C [27]: 106%
- viability, T/C [28]: 94.3%
- viability, T/C [29]: 79.2%
- viability, T/C [30]: 66.6%
- viability, T/C [31]: 109%
- viability, T/C [32]: 95.7%
- viability, T/C [33]: 98.9%
- viability, T/C [34]: 66.5%
- viability, T/C [35]: 71.6%
- viability, T/C [36]: 62.8%

SMILES: CCc1cc2c(N3CCc4c(cc(Cn5ccnc5)cc4-c4cn(C)nc4C(F)(F)F)C3=O)ccnc2c(OC)n1 + COC1C(OC(N)=O)C(O)C(Oc2ccc3c(O)c(NC(=O)c4ccc(O)c(CC=C(C)C)c4)c(=O)oc3c2C)OC1(C)C
- pIC50 (second compound 0.0316 µM): < 5.00
- pIC50 (second compound 0.1 µM): < 5.00
- pIC50 (second compound 0.316 µM): < 5.00
- pIC50 (second compound 1 µM): < 5.00
- pIC50 (second compound 3.16 µM): < 5.00
- pIC50 (second compound 10 µM): < 5.00
- viability, T/C [1]: 101%
- viability, T/C [2]: 107%
- viability, T/C [3]: 83%
- viability, T/C [4]: 86%
- viability, T/C [5]: 93.8%
- viability, T/C [6]: 57%
- viability, T/C [7]: 108%
- viability, T/C [8]: 106%
- viability, T/C [9]: 94.6%
- viability, T/C [10]: 98.5%
- viability, T/C [11]: 98.4%
- viability, T/C [12]: 52.3%
- viability, T/C [13]: 97%
- viability, T/C [14]: 104%
- viability, T/C [15]: 103%
- viability, T/C [16]: 95.7%
- viability, T/C [17]: 61.9%
- viability, T/C [18]: 52.1%
- viability, T/C [19]: 113%
- viability, T/C [20]: 83.3%
- viability, T/C [21]: 71.3%
- viability, T/C [22]: 93.8%
- viability, T/C [23]: 69%
- viability, T/C [24]: 52.3%
- viability, T/C [25]: 106%
- viability, T/C [26]: 99%
- viability, T/C [27]: 91.9%
- viability, T/C [28]: 76.5%
- viability, T/C [29]: 70%
- viability, T/C [30]: 64.8%
- viability, T/C [31]: 110%
- viability, T/C [32]: 89.5%
- viability, T/C [33]: 93.2%
- viability, T/C [34]: 92.1%
- viability, T/C [35]: 55.6%
- viability, T/C [36]: 58.6%

SMILES: COc1ccc([C@@H](O)c2cc(-c3ncnc4cc(N5CCOCC5)ccc34)c(F)cc2Cl)nn1 + COC1C(OC(N)=O)C(O)C(Oc2ccc3c(O)c(NC(=O)c4ccc(O)c(CC=C(C)C)c4)c(=O)oc3c2C)OC1(C)C
- pIC50 (second compound 0.0316 µM): < 5.00
- pIC50 (second compound 0.1 µM): < 5.00
- pIC50 (second compound 0.316 µM): < 5.00
- pIC50 (second compound 1 µM): < 5.00
- pIC50 (second compound 3.16 µM): < 5.00
- pIC50 (second compound 10 µM): < 5.00
- viability, T/C [1]: 116%
- viability, T/C [2]: 115%
- viability, T/C [3]: 110%
- viability, T/C [4]: 92%
- viability, T/C [5]: 105%
- viability, T/C [6]: 87.7%
- viability, T/C [7]: 109%
- viability, T/C [8]: 103%
- viability, T/C [9]: 95.3%
- viability, T/C [10]: 97.5%
- viability, T/C [11]: 94.4%
- viability, T/C [12]: 98.5%
- viability, T/C [13]: 107%
- viability, T/C [14]: 103%
- viability, T/C [15]: 92.5%
- viability, T/C [16]: 96.8%
- viability, T/C [17]: 115%
- viability, T/C [18]: 81.7%
- viability, T/C [19]: 98%
- viability, T/C [20]: 106%
- viability, T/C [21]: 109%
- viability, T/C [22]: 92.4%
- viability, T/C [23]: 97.2%
- viability, T/C [24]: 77.4%
- viability, T/C [25]: 106%
- viability, T/C [26]: 108%
- viability, T/C [27]: 109%
- viability, T/C [28]: 105%
- viability, T/C [29]: 93.3%
- viability, T/C [30]: 83.8%
- viability, T/C [31]: 111%
- viability, T/C [32]: 103%
- viability, T/C [33]: 118%
- viability, T/C [34]: 83.6%
- viability, T/C [35]: 115%
- viability, T/C [36]: 114%
